Test results from ChEMBL document CHEMBL3769379, “SAR Studies of 5-Aminopyrazole-4-carboxamide Analogues as Potent and Selective Inhibitors of Toxoplasma gondii CDPK1” (ACS Med Chem Lett, 2015).
Activity calls are given as the source filed them. The rule behind the calls is not given here.

How the values were obtained:
[1] = Cytotoxicity against human CRL8155 cells after 48 hrs by Alamar Blue assay; assay type: cell-based; details: crl8155, 48 h
[2] = Solubility of the compound in PBS incubated overnight at pH 6.5 by HPLC-UV analysis; assay type: physicochemical; details: buffer
[3] = molecular target: T1, Calmodulin-domain protein kinase 1 (Toxoplasma gondii, UniProt Q9BJF5)
T1 sequence (Q9BJF5 whole entry): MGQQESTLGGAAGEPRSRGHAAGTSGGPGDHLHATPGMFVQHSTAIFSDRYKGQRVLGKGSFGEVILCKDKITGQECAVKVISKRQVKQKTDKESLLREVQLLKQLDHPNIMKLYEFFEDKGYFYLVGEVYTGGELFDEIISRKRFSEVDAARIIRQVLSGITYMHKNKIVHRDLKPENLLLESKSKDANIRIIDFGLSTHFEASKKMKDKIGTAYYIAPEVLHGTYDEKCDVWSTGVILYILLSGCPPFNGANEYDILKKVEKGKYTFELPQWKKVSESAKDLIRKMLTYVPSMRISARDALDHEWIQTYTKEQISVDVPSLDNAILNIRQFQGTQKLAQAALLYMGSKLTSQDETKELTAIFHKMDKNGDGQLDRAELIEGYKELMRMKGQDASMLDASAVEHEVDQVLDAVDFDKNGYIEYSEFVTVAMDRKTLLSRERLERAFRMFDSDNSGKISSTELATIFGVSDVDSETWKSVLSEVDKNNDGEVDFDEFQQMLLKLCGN

[4] = Ratio of drug level in brain to plasma in mouse at 5 mg/kg, ip by LC/MS analysis; assay type: ADME, organism-based
Toxoplasma gondii [5] = assay: Antiprotozoan activity against Toxoplasma gondii RH infected in CF-1 mouse assessed as reduction of parasite burden in brain at 20 to 50 mg/kg, po qd administered for 5 days measured 24 hrs post last dose by quantitative RT-PCR analysis relative to control; assay type: functional
Mus musculus [6] = assay: Toxicity in CF-1 mouse infected with Toxoplasma gondii RH assessed as weight loss at 20 to 50 mg/kg, po qd administered for 5 days; assay type: organism-based; details: in vivo, 120 h
Mus musculus [7] = assay: Toxicity in CF-1 mouse infected with Toxoplasma gondii RH assessed as altered grooming at 20 to 50 mg/kg, po qd administered for 5 days; assay type: organism-based; details: in vivo, 120 h
Mus musculus [8] = assay: Toxicity in CF-1 mouse infected with Toxoplasma gondii RH assessed as mortality at 50 mg/kg, po qd administered for 5 days measured on day 5; assay type: organism-based; details: in vivo, 120 h
Toxoplasma gondii [9] = assay: Antiprotozoan activity against Toxoplasma gondii infected in fibroblasts assessed as growth inhibition at low concentration after 2 days by beta-galactosidase reporter assay; assay type: functional, organism-based
Toxoplasma gondii [10] = assay: Antiprotozoan activity against Toxoplasma gondii overexpressing wild type CDPK1 infected in fibroblasts assessed as growth inhibition at low concentration after 2 days by beta-galactosidase reporter assay; assay type: functional, organism-based
Mus musculus [11] = assay: Toxicity in CF-1 mouse infected with Toxoplasma gondii RH assessed as lethargy at 20 mg/kg, po qd administered for 5 days; assay type: organism-based; details: in vivo, 120 h
[12] = human, plasma, 4 h
Description: Fraction unbound in human plasma after 4 hrs by LC/MS analysis

[13] = molecular target: Proto-oncogene tyrosine-protein kinase Src (Homo sapiens, UniProt P12931)
Proto-oncogene tyrosine-protein kinase Src, sequence (P12931 2-536 limits assumed): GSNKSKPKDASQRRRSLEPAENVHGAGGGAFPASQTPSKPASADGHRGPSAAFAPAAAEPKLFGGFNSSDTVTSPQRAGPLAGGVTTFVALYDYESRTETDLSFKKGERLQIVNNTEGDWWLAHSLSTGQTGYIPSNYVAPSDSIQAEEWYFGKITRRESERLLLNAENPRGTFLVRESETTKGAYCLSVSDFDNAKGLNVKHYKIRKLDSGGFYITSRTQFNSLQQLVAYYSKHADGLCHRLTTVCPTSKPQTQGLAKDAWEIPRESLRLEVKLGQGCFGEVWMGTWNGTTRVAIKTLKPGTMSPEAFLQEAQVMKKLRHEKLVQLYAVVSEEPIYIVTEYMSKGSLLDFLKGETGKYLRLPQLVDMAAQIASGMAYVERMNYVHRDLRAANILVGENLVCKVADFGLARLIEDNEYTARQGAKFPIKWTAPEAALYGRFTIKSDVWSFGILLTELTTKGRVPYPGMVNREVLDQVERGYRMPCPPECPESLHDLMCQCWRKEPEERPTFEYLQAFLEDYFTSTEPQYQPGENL

Toxoplasma gondii [14] = assay: Antiprotozoan activity against Toxoplasma gondii RH infected in CF-1 mouse assessed as reduction of parasite burden in peritoneal fluid at 5 to 10 mg/kg, po bid administered for 5 days measured 24 hrs post last dose by hemocytometer-based fluorescence microscopy; assay type: functional, organism-based
Mus musculus [15] = assay: Toxicity in CF-1 mouse infected with Toxoplasma gondii RH assessed as weight loss at 5 to 40 mg/kg, po bid administered for 5 days; assay type: organism-based; details: in vivo, 120 h
Mus musculus [16] = assay: Toxicity in CF-1 mouse infected with Toxoplasma gondii RH assessed as altered grooming at 5 to 40 mg/kg, po bid administered for 5 days; assay type: organism-based; details: in vivo, 120 h
Mus musculus [17] = assay: Toxicity in CF-1 mouse infected with Toxoplasma gondii RH assessed as lethargy at 5 to 40 mg/kg, po bid administered for 5 days; assay type: organism-based; details: in vivo, 120 h
Toxoplasma gondii [18] = assay: Antiprotozoan activity against Toxoplasma gondii RH infected in CF-1 mouse assessed as reduction of parasite burden in peritoneal fluid at 20 to 40 mg/kg, po bid administered for 5 days measured 24 hrs post last dose by hemocytometer-based fluorescence microscopy relative to control; assay type: functional
Mus musculus [19] = assay: Toxicity in CF-1 mouse infected with Toxoplasma gondii RH assessed as lethargy at 20 to 50 mg/kg, po qd administered for 5 days; assay type: organism-based; details: in vivo, 120 h

Structure (SMILES) | Activity [1] [µM] | IC50 [3] [nM] | also measured
CC(C)(C)n1nc(-c2cnc3cc(OC4CCC4)ccc3c2)c(C(N)=O)c1N | > 40 | 7 | solubility [2]: Insoluble
CC(C)(C)n1nc(-c2ccc3nc(OC4CC4)ccc3c2)c(C(N)=O)c1N | > 40 | 4.6 | BPR [4]: 43%; fold change (FC) (Toxoplasma gondii [5]): >5; Activity (Mus musculus [6]): Non-toxic; Activity (Mus musculus [7]): Non-toxic; Activity (Mus musculus [8]): Toxic; growth inhibition (GI) (Toxoplasma gondii [9]): inactive; growth inhibition (GI) (Toxoplasma gondii [10]): inactive; Activity (Mus musculus [11]): Non-toxic; Fu [12]: 88%
CCCOc1ccc2cc(-c3nn(C(C)(C)C)c(N)c3C(N)=O)cnc2c1 | > 40 | – | –
CCOc1ccc2cc(-c3nn(CC(C)(C)CO)c(N)c3C(N)=O)cnc2c1 | > 40 | – | IC50 [13]: > 10000 nM
CCOc1ccc2cc(-c3nn(CC4CC4)c(N)c3C(N)=O)ccc2n1 | > 40 | 7.9 | –
COc1ccc2cc(-c3nn(C(C)(C)C)c(N)c3C(N)=O)cnc2c1 | > 40 | – | –
CC(C)(C)n1nc(-c2ccc3nc(OC4CCC4)ccc3c2)c(C(N)=O)c1N | > 40 | 12 | –
CCOc1ccc2cc(-c3nn(C(C)(C)C)c(N)c3C(N)=O)cnc2c1 | – | – | solubility [2]: Insoluble; BPR [4]: 15.8%; Activity (Toxoplasma gondii [14]): Active; Activity (Mus musculus [15]): Non-toxic; Activity (Mus musculus [16]): Non-toxic; Activity (Mus musculus [17]): Non-toxic; fold change (FC) (Toxoplasma gondii [18]): >10; Fu [12]: 57%
CCOc1ccc2cc(-c3nn(C4CCCCC4)c(N)c3C(N)=O)ccc2n1 | > 40 | 5.5 | –
CC(C)(C)n1nc(-c2cnc3cc(F)ccc3c2)c(C(N)=O)c1N | > 40 | – | –
CCOc1ccc2cc(-c3nn(C4CCC4)c(N)c3C(N)=O)cnc2c1 | > 40 | – | –
CCOc1ccc2cc(-c3nn(CC4CC4)c(N)c3C(N)=O)cnc2c1 | > 40 | 15 | –
CC(C)(C)n1nc(-c2cnc3cc(OC4CC4)ccc3c2)c(C(N)=O)c1N | > 40 | – | solubility [2]: soluble; BPR [4]: 16%; Activity (Mus musculus [6]): Non-toxic; Activity (Mus musculus [7]): Non-toxic; Activity (Mus musculus [19]): Non-toxic; growth inhibition (GI) (Toxoplasma gondii [9]): inactive; growth inhibition (GI) (Toxoplasma gondii [10]): inactive
CCOc1ccc2cc(-c3nn(CC(C)(C)CO)c(N)c3C(N)=O)ccc2n1 | > 40 | – | solubility [2]: soluble
CC(C)(C)n1nc(-c2cnc3cc(OCC4CC4)ccc3c2)c(C(N)=O)c1N | > 40 | – | IC50 [13]: > 10000 nM
CCOc1ccc2cc(-c3nn(C4CCCCCC4)c(N)c3C(N)=O)ccc2n1 | – | 17 | –
CC(C)Oc1ccc2cc(-c3nn(C(C)(C)C)c(N)c3C(N)=O)cnc2c1 | > 40 | 16 | –
CCOc1ccc2cc(-c3nn(C4CCCCCC4)c(N)c3C(N)=O)cnc2c1 | > 40 | – | –
CCOc1ccc2cc(-c3nn(C4CCCC4)c(N)c3C(N)=O)cnc2c1 | > 40 | – | –
CCOc1ccc2cc(-c3nn(C(C)CO)c(N)c3C(N)=O)cnc2c1 (centres undefined) | – | 26 | –
CC(C)(C)n1nc(-c2cnc3cc(OC(F)(F)F)ccc3c2)c(C(N)=O)c1N | – | 39 | –
CCOc1ccc2cc(-c3nn(CC(C)(C)O)c(N)c3C(N)=O)cnc2c1 | – | 113 | –
CCOc1ccc2cc(-c3nn(C(C)(C)C)c(N)c3C(N)=O)ccc2n1 | > 40 | – | –
CCOc1ccc2cc(-c3nn(C(C)C)c(N)c3C(N)=O)ccc2n1 | > 40 | 6.5 | –
